Laboratory results reported in patent US12043594B2, “Biphenyl derivative compound and use thereof” (EWHA UNIVERSITY—INDUSTRY COLLABORATION FOUNDATION, priority 2018, dated 2024).

Columns and labels:
MDA-MB-321 cells [1] = assay: 3D tumor spheroid model; format: cell-based; details: various concentrations, 14 days after treatment, FIG. 4
Method: The cancer growth inhibitory effect of administration of the compounds according to the present disclosure was evaluated using a 3D tumor spheroid model. The 3D tumor spheroid structure has characteristics similar to solid cancer under normal stress conditions because it is not easy to transfer nutrients into cancer cells.
Specifically, 7.5 K MDA-MB-321 cells were 3D-cultured in an ultra-low attachment (ULA) 96-well plate (Perkin Elmer) under a 2.5% Matrigel™ (BD Biosciences) condition. 5 days after 3D spheroid production, the cells were treated with various concentrations of the compound (#24) of Example 1 according to the present disclosure, and 14 days after the treatment, the cancer cell growth inhibitory effect of the compound was evaluated.

recombinant Nm23-H1 = recombinant Nm23-H1 (Homo sapiens, UniProt P15531); assay: NDPK assay with recombinant Nm23-H1; format: biochemical; details: 5 ng recombinant Nm23-H1, incubated 10 minutes at room temperature, then 5 μM ADP for 1 minute
Method: NDPK assay was performed by incubating 5 ng of recombinant Nm23-H1 with each of test compounds (Examples 1 to 3) in NDPK assay buffer (20 mM HEPES, 3 mM MgCl2) at room temperature for 10 minutes, followed by reaction with 5 μM ADP for 1 minute.

MDA-MB-321 cells [2] = assay: 3D tumor spheroid model, co-treatment with paclitaxel; format: cell-based; details: co-treated with paclitaxel, 14 days after treatment, FIG. 5
Method: In order to evaluate the effect of co-treatment with paclitaxel (PTX) which is used as a chemotherapeutic agent against triple negative breast cancer, the effect of co-treatment was evaluated using a 3D tumor spheroid model in a manner similar to Example 7.
Specifically, 7.5 K MDA-MB-321 cells were 3D-cultured in an ultra-low attachment (ULA) 96-well plate (Perkin Elmer) under a 2.5% Matrigel™ (BD Biosciences) condition. 5 days after 3D spheroid production, the cells were co-treated with the compound (B024) of Example 1 according to the present disclosure and paclitaxel in a concentration-dependent manner, and 14 days after the treatment, the cancer cell growth inhibitory effect of co-treatment was evaluated.

Sequence of recombinant Nm23-H1 (P15531 whole entry): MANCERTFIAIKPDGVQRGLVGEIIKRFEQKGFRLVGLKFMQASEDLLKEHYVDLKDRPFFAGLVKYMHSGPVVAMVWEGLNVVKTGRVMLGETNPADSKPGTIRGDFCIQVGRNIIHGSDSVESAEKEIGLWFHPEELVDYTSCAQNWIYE

Row | SMILES | cancer cell growth in the 3D tumor spheroid model (MDA-MB-321 cells [1]) | NDPK activity (recombinant Nm23-H1) | cancer cell growth in 3D tumor spheroid model, co-administration with paclitaxel (MDA-MB-321 cells [2])
1 | COc1ccc(-c2cccc(C(O)c3ccc(OC)c(OC)c3)c2)cc1OC (centres unmarked) [Example 1, (3′,4′-dimethoxy-[1,1′-biphenyl]-3-yl)(3,4-dimethoxyphenyl)methanol] | significantly inhibited cancer cell growth | 2.8 | significantly inhibited cancer cell growth even at low concentrations
2 | COc1ccc(Cc2cccc(-c3ccc(OC)c(OC)c3)c2)cc1OC [Example 2, 3′-(3,4-dimethoxybenzyl)-3,4-dimethoxy-1,1′-biphenyl] | – | 1.4 | –
3 | COc1ccc(C(=O)c2cccc(-c3ccc(OC)c(OC)c3)c2)cc1OC [Example 3, (3′,4′-dimethoxy-[1,1′-biphenyl]-3-yl)(3,4-dimethoxyphenyl)methanone] | – | 1.7 | –
